{"source": "PubChem BioAssay AID1259420", "about": "(Broad Institute, 2018)", "note": "Where “and” joins values, the source holds several entries; their conditions need not be identical. Equal values may be shown once. Results filed as inconclusive are left out. Calls of active or inactive are those of the source. No rule for the calls is given here.", "data": [{"test_system": "Toxoplasma gondii growth in host cells, no IFN-gamma", "test": "compound activity on host-cell Toxoplasma growth – dose response (AID 1259420);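 also: host cells were HeLa; final incubation lasted 72 hours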", "values": [{"compound": "COc1cc(N2CCO[C@H]3[C@@H](Oc4ncccc4F)CC[C@H]32)ncn1", "AC50": "6.3 µM"}, {"compound": "C=CCN1C(=O)COC2(CCN(Cc3ccc(C)s3)CC2)C1C", "note": "(stereo not drawn)", "AC50": "> 39 µM (inactive)"}, {"compound": "CCOCCCNC(=O)c1ccc2ccc(N3CCN(CC4CC4)CC3)n2c1", "AC50": "> 39 µM (inactive)"}, {"compound": "OC(c1cc(C(F)(F)F)nc2c(C(F)(F)F)cccc12)C1CCCCN1", "note": "(stereo not drawn)", "AC50": "20.4 µM"}, {"compound": "COc1ccc(Cc2cnc(N)nc2N)cc1OC", "AC50": "25.8 µM"}, {"compound": "N#C[C@@H]1[C@@H](c2ccc(-c3cccc(F)c3)cc2)[C@H](CO)N1C(=O)NC1CCCC1", "AC50": "> 20 µM (inactive)"}, {"compound": "N#C[C@@H]1[C@H](c2ccc(-c3cccc(F)c3)cc2)[C@H](CO)N1C(=O)NC1CCCC1", "AC50": "36 µM and 24 µM"}, {"compound": "Cc1nc(N2CCOCC2)nc2c1CCN(C(=O)C1CC1)CC2", "AC50": "21.7 µM"}, {"compound": "CCc1cnc(N2[C@H](C#N)[C@H](c3ccc(-c4cccc(F)c4)cc3)[C@H]2CO)s1", "AC50": "22.6 µM"}, {"compound": "COc1cccc(-c2ccc(C3[C@@H]4CN(S(=O)(=O)Cc5ccccc5)C[C@H]3N4)cc2)c1", "note": "(stereo partly drawn)", "AC50": "16.9 µM and 13.1 µM"}, {"compound": "O=C(NC1CCC12CCN(Cc1ccoc1)CC2)c1cnccn1", "note": "(stereo not drawn)", "AC50": "> 39 µM (inactive)"}, {"compound": "Cc1cc(C(C)(C)CC(C)(C)C)ccc1OCCOCC[N+](C)(C)Cc1ccccc1", "AC50": "12.5 µM"}, {"compound": "CCc1ccccc1S(=O)(=O)N1CCc2nc(-c3ccc(OC)cc3)sc2C1", "AC50": "4.35 µM"}, {"compound": "O=C(NCCN1CCCC1)[C@H]1[C@H](CO)[C@H]2Cn3c(cccc3=O)[C@H]2N1Cc1ccccn1", "AC50": "> 39 µM (inactive)"}, {"compound": "COc1ccccc1-c1ccc2c(c1)[C@@H]1[C@@H](CCN1S(=O)(=O)c1ccc(C)cc1)[C@H](CO)N2", "AC50": "12.4 µM"}, {"compound": "CN1C(=O)c2cc(NC(=O)Cc3cccs3)ccc2OC[C@H]2O[C@@H](CC(=O)NCc3ccc(-c4ccccc4)cc3)CC[C@@H]21", "AC50": "20 µM and > 39 µM (inactive)"}, {"compound": "COc1cc(CN2C[C@@H]3N[C@H](C2)C3c2ccc(-c3ccc(C#N)cc3)cc2)cc(OC)c1", "note": "(stereo partly drawn)", "AC50": "7.99 µM"}, {"compound": "O=C(O)CN1C[C@H]2c3ccccc3C(OCC3CC3)[C@@H]2C1", "note": "(stereo partly drawn)", "AC50": "> 39 µM (inactive)"}, {"compound": "Cc1ccccc1-c1ccc2c(-c3ncc(C(=O)NCCN(C)C)s3)noc2c1", "AC50": "24.7 µM"}, {"compound": "N#Cc1cccc(-c2ccc(C3[C@@H]4CN(C(=O)Nc5ccc(C(F)(F)F)cc5)C[C@H]3N4)cc2)c1", "note": "(stereo partly drawn)", "AC50": "14.4 µM and 14.6 µM"}, {"compound": "O=C(Nc1cccc(F)c1)C1CC12CCN(S(=O)(=O)c1ccccc1)C2", "note": "(stereo not drawn)", "AC50": "35.5 µM"}, {"compound": "N#Cc1ccc(-c2ccc([C@@H]3[C@@H]4CN(S(=O)(=O)Cc5ccccc5)C[C@H]3N4)cc2)cc1", "AC50": "9.96 µM"}, {"compound": "O=C(Cc1ccccc1)N1CC(=O)N2[C@H](CO)[C@@H](c3ccc(-c4ccc(F)cc4)cc3)[C@@H]2C1", "AC50": "19.2 µM"}, {"compound": "COc1cc([C@@H]2c3cc4c(cc3C(OC3O[C@@H]5COC(C)O[C@H]5[C@H](O)[C@H]3O)C3COC(=O)[C@@H]32)OCO4)cc(OC)c1O", "note": "(stereo partly drawn)", "AC50": "23.5 µM"}, {"compound": "CN1c2ccc(-c3ccccc3)cc2[C@@H]2[C@@H](CCN2C(=O)NC2CCCCC2)[C@H]1CO", "AC50": "8.76 µM"}, {"compound": "O=S(=O)(c1ccc(-c2ccccc2)cc1)N1C[C@@H]2N[C@H](C1)C2c1ccc(-c2ccncc2)cc1", "note": "(stereo partly drawn)", "AC50": "16.1 µM"}, {"compound": "CN1CCN(C(=O)c2nn(C)c3c2CCN(S(C)(=O)=O)C3)CC1", "AC50": "> 39 µM (inactive)"}, {"compound": "CCc1cnc(N2[C@@H](C#N)[C@@H](c3ccc(C4=CCCCC4)cc3)[C@@H]2CO)s1", "AC50": "> 20 µM (inactive)"}, {"compound": "COc1cccc(NC(=O)N2CC(=O)N3[C@H](CO)[C@H](c4ccc(C#CCC5CCCC5)cc4)[C@@H]3C2)c1", "AC50": "15.9 µM"}, {"compound": "N#Cc1cccc(-c2ccc3c(c2)[C@H]2[C@H](CCN2Cc2ccc4c(c2)OCO4)[C@H](CO)N3)c1", "AC50": "17.2 µM"}, {"compound": "COc1cccc(CN2C[C@@H]3N[C@H](C2)C3c2ccc(-c3ccccc3C)cc2)c1", "note": "(stereo partly drawn)", "AC50": "12.3 µM"}, {"compound": "Cc1cc(Nc2cc(N3CCN(C)CC3)nc(Sc3ccc(NC(=O)C4CC4)cc3)n2)n[nH]1", "AC50": "18.7 µM"}, {"compound": "COc1cccc(NC(=O)N2CC(=O)N3[C@H](CO)[C@@H](c4ccc(C#CCC5CCCC5)cc4)[C@@H]3C2)c1", "AC50": "14.4 µM and 13.4 µM"}, {"compound": "O=C(Nc1ccc(F)cc1)N1CC(=O)N2[C@H](C1)[C@H](c1ccc(-c3cccc(F)c3)cc1)[C@@H]2CO", "AC50": "15 µM"}, {"compound": "COc1ccccc1NC(=O)N1CCCCN2[C@H](CO)[C@@H](c3ccc(-c4cccc(C#N)c4)cc3)[C@@H]2C1", "AC50": "16.4 µM"}, {"compound": "CC[C@]1(O)C[C@@H]2CN(CCc3c([nH]c4ccccc34)[C@@](C(=O)OC)(c3cc4c(cc3OC)N(C)[C@H]3[C@@](O)(C(=O)OC)[C@H](OC(C)=O)[C@]5(CC)C=CCN6CC[C@]43[C@@H]65)C2)C1", "AC50": "< 0.16 µM"}, {"compound": "COc1ccc(-c2nc3c(s2)CN(S(=O)(=O)c2ccccc2C)CC3)cc1", "AC50": "8.96 µM"}, {"compound": "O=C1CC(c2ccncc2)C2(CCN(Cc3nccs3)CC2)N1", "note": "(stereo not drawn)", "AC50": "> 39 µM (inactive)"}, {"compound": "CCc1ccccc1S(=O)(=O)N1CCc2nc(-c3ccccc3)sc2C1", "AC50": "3.94 µM and 3.08 µM"}, {"compound": "CC(C)N1CCN(CC#N)C2(CCN(C(=O)c3ccc[nH]3)C2)C1=O", "note": "(stereo not drawn)", "AC50": "37.9 µM"}, {"compound": "COc1cccc(C#Cc2ccc([C@@H]3[C@H](C#N)N(C(=O)c4ccccn4)[C@H]3CO)cc2)c1", "AC50": "19.9 µM"}, {"compound": "O=c1[nH]c(=O)n([C@H]2C[C@H](O)[C@@H](CO)O2)cc1F", "AC50": "0.346 µM"}, {"compound": "O=C(Nc1cccc(F)c1)N1CCCCN2[C@H](CO)[C@H](c3ccc(C#Cc4cccnc4)cc3)[C@@H]2C1", "AC50": "1.34 µM and 2.47 µM"}]}]}
